Source: patent US12622448B2 (Givaudan SA, priority 2019, dated 2026)

Experiments:
[1] = Expert taster comparison with and without Amadori compound, cheese sauce; details: 10 ppm, expert tasters (5-7)
Procedure: (§1) The following formulations were prepared with and without Amadori compound and tasted by expert tasters (5-7) and compared. The Amadori compound was dosed in the consumable with no additional heating required.
Base: 33.46% Maltodextrin 10DE; 29.00% Starch Ultrasphere 2000; 10.00% Cheddar Cheese (white); 9.00% non-fat milk powder; 6.20% Whey; 5.00% canola shortening powder; 4.25% salt, 40 mesh; 0.35% yeast extract powder; 0.10% citric acid; 0.10% lactic acid; 2.54% cheese flavor.

[2] = Expert taster comparison with and without Amadori compound, vanilla flavored milk; details: expert tasters (5-7)
Procedure: as §1

[3] = Expert taster comparison with and without Amadori compound, almond milk; details: 2 ppb; base: commercially available sweetened vanilla almond milk; expert tasters (5-7)
Procedure: as §1

[4] = Expert taster comparison with and without Amadori compound, ice cream; details: 10 ppb; base: 14.31% heavy whipping cream, 77.60% whole milk, 8% sucrose, 0.009% vanillin; expert tasters (5-7)
Procedure: as §1

[5] = Expert taster comparison with and without Amadori compound, plain low fat yoghurt; details: base: 1.5% fat, 5% sugar, expert tasters (5-7)
Procedure: as §1

[6] = Expert taster comparison with and without Amadori compound, strawberry flavored yoghurt; details: base: 1.7% fat, 4% sugar, strawberry flavor 0.1%, expert tasters (5-7)
Procedure: as §1
Strawberry Flavored Yoghurt

[7] = Expert taster comparison with and without Amadori compound, cream filling; details: 10 ppb; base: 66.4% sucrose, 32% palm oil, 0.2% salt, 0.4% vanilla extract, 1% water; expert tasters (5-7)
Procedure: as §1

[8] = Expert taster comparison with and without Amadori compound, chocolate flavored milk; details: 5% sugar, 0.05% carrageenan, expert tasters (5-7)
Procedure: as §1

SMILES: O=C(O)[C@H](Cc1c[nH]cn1)NCC(=O)[C@@H](O)[C@H](O)[C@H](O)CO [Fru-His, N-(1-deoxy-D-fructose-1-yl)-L-histidine]
- taste/mouthfeel compared with base [1]: more cheesy, slight acidic, aged, meaty, tingling, chalky, increased mouthfeel, creamier

SMILES: CSCC[C@H](NCC(=O)[C@@H](O)[C@H](O)[C@H](O)CO)C(=O)O [Fru-Met, N-(1-deoxy-D-fructose-1-yl)-L-methionine]
- taste/mouthfeel compared with base [1]: more rich, cheesy, umami, astringent, sharper cheese notes, salty

SMILES: CC[C@H](C)[C@H](NCC(=O)[C@@H](O)[C@H](O)[C@H](O)CO)C(=O)O [Fru-Ileu, N-(1-deoxy-D-fructose-1-yl)-L-isoleucine]
- taste/mouthfeel compared with base [1]: slight acidic, bitter, creamier, increased saltiness

SMILES: O=C(O)C1CCCN1CC1(O)OCC(O)C(O)C1O (centres unmarked)
- taste/mouthfeel compared with base ([2]; 0.1 ppb, base: 2% milk fat, 4% sugar, 0.2% vanilla extract): sweeter linger, more powdery, more fatty body, full and creamy, more dairy impact, creamier mouthfeel, slight waxy mouthfeel
- taste/mouthfeel compared with base ([2]; 1 ppb, base: 2% milk fat, 4% sugar, 0.2% vanilla extract): sweeter, increase fullness, creamier mouthfeel, more dairy, slight waxy mouthfeel
- taste/mouthfeel compared with base ([2]; 20 ppm, base: half full milk, 5% sugar, 0.1% vanillin): slightly fuller, richer than base, fuller like fat, sweeter
- taste/mouthfeel compared with base ([2]; δ ppm, base: 2% fat milk, 4% sugar, 0.15% vanilla flavor): sweeter, more rich creamy, slightly sweeter, juicy, slight metallic and mouth drying
- taste/mouthfeel compared with base [3]: more creamy, stronger vanilla flavor, more body, more creamy mouthfeel; sweeter and more salty
- taste/mouthfeel compared with base [4]: more creamy, sweeter, slightly more body and mouth round effect, slightly more milk fat taste
- taste/mouthfeel compared with base [1]: denser, cheesier, smooth, saltier, creamier mouthfeel, fresher dairy note, rich, slight metallic and astringent
- taste/mouthfeel compared with base ([5]; 5 ppm): less sour, sweeter, creamy
- taste/mouthfeel compared with base ([5]; 10 ppm): increase upfront sweet, less sour
- taste/mouthfeel compared with base ([5]; 25 ppm): metallic linger, increase overall and upfront sweet
- taste/mouthfeel compared with base ([6]; 1 ppb): hardly any effect noticed
- taste/mouthfeel compared with base ([6]; 10 ppb): sweeter, more creamy, richer mouthfeel, more fruity
- taste/mouthfeel compared with base [7]: more fatty and creamy, sweeter and more salty, more buttery profile
- taste/mouthfeel compared with base ([8]; 0.1 ppb, base: 2% milk fat, 2% cocoa powder): creamy, full, richer chocolate, slight waxy, more cocoa impact
- taste/mouthfeel compared with base ([8]; 1 ppb, base: 2% milk fat, 2% cocoa powder): more chocolate linger, more chocolate, more complex, full mouthfeel, sweeter impression, thicker, waxy, slight tingle
- taste/mouthfeel compared with base ([8]; 10 ppm, base: 2% fat milk, 20/cocoa powder): more rich, more body, more real chocolate profile, slight increase in bitterness

SMILES: O=C(O)C(CO)NCC1(O)OCC(O)C(O)C1O (centres unmarked) [Fru-Ser]
- taste/mouthfeel compared with base [1]: cheesy, creamy, rich, tingling, metallic, thick, smooth
